Measurements published in patent publication US9718771B2, “Aniline derivative, pharmaceutical composition containing same, and use thereof” (Kissei Pharmaceutical Co., Ltd., priority 2014, dated 2017).

Tested on: male guinea pigs
Assay: Confirmation test for reduction effects on heart rate
Format: in vivo
Conditions: anesthetized guinea pigs, intravenous (vein of penis), 0.03 mg/kg
Excerpt: Confirmation Test for Reduction Effects on Heart Rate
Effects on heart rate of a test compound and fingolimod, which is an S1P1 receptor agonist, were confirmed using male guinea pigs (Japan SLC, 5 to 8-weeks-old in use). Guinea pigs were incised in the median line of cervical region under anesthesia with pentobarbital (Kyoritsu Pharmaceutical) by intraperitoneal administration. A PE90 catheter filled with saline (Otsuka Pharmaceutical Factory) containing 50 units/mL heparin (Mochida Pharmaceutical) was inserted to right common carotid artery. By holding the insertion site of the catheter with silk sutures, it was performed to avoid bleeding from the insertion site and to fix the catheter. After it was confirmed that blood flow reached into the catheter, an apical end of catheter opposite to the insertion site of artery was connected to pressure transducer, and blood pressure and heart rate were measured via a strain pressure amplifier and a heart rate counter unit, respectively. […]
After it was confirmed that blood pressure and heart rate were stabilized in guinea pigs, vehicle, the test compound or fingolimod was administered into the vein of penis at 0.25 mL/kg using 1 mL syringes with needles of 27G. The changes of blood pressure and heart rate were measured every 5 minutes after administration of vehicle, the test compound or fingolimod.

SMILES: CCCCCCCCc1ccc(CCC(N)(CO)CO)cc1 [fingolimod]
- effect on heart rate: remarkable reduction of heart rate
